According to patent US9771351B2, “Wnt signaling inhibitor” (KYOWA HAKKO KIRIN CO., LTD., priority 2013, dated 2017):

Assays:
tankyrase-2 = target: T1, tankyrase-2 (Homo sapiens, UniProt Q9H2K2); experiment: Tankyrase-2 enzyme inhibition test (Tankyrase-2 Chemiluminescent Assay Kit); assay type: biochemical; conditions: autoribosylation of GST-tankyrase-2 fusion protein, chemiluminescence
T1 construct: purchased BPS Bioscience, Inc. 80566
T1 sequence (Q9H2K2 1-1166): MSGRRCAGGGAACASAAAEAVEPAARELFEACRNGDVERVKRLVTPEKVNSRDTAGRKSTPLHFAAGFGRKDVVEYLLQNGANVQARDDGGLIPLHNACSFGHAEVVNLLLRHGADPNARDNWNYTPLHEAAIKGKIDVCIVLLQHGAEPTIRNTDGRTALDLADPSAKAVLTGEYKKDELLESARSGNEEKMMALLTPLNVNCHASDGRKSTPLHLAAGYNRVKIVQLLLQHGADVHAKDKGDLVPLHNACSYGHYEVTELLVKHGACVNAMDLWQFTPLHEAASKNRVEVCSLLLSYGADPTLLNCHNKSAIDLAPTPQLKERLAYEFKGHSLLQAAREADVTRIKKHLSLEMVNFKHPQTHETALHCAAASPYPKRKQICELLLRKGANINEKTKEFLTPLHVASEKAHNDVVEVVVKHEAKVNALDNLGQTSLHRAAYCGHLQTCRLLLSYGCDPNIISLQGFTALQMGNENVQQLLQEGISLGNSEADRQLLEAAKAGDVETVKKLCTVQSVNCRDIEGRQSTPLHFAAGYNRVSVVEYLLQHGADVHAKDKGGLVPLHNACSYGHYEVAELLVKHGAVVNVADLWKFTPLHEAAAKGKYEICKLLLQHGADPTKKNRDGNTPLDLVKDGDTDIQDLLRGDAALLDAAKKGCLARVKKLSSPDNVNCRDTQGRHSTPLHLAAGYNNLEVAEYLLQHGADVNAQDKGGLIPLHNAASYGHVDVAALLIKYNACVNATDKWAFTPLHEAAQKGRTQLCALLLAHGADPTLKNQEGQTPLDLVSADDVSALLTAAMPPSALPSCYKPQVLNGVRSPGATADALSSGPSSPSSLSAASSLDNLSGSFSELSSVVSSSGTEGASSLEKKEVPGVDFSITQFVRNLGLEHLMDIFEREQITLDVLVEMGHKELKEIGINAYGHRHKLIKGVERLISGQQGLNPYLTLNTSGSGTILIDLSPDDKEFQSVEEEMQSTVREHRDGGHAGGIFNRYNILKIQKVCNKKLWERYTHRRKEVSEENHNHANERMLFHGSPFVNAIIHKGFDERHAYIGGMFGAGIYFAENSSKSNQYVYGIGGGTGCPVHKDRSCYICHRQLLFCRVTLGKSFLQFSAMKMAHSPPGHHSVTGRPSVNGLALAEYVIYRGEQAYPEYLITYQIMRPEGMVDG
Description: Test Example 2: Tankyrase-2 Enzyme Inhibition Test
The enzyme activity of tankyrase-2 was evaluated using Tankyrase-2 Chemiluminescent Assay Kit (BPS Bioscience, Inc., Catalog No. 80566). The Tankyrase-2 Chemiluminescent Assay Kit is a kit for evaluating the enzyme activity of tankyrase-2 using autoribosylation of glutathione-S-transferase (GST)-tankyrase-2 fusion protein as an index. All the experimental materials except for PBS (PBST) buffer containing phosphate-buffered saline (PBS) and 0.05% Tween 20 are all included in the kit. The GST-tankyrase-2 enzyme diluted with 50 μL of 1× tankyrase buffer was added to the wells of a 96-well plate coated with glutathione. After the plate was left to stand overnight at 4° C., the plate was washed 3 times with the PBST buffer. 150 μL of blocking buffer was added thereto, and the plate was left to stand at room temperature for 30 minutes to block the wells. The plate was washed 3 times with the PBST buffer. Before the ribosylation reaction, an assay mixture containing a biotinylated substrate and a test compound diluted with 1× tankyrase buffer were mixed, whereby a reaction mixture was prepared. In order to start the ribosylation reaction, 50 μL of the reaction mixture was added to the wells. In a blank well, 1× tankyrase buffer was added in place of the reaction mixture containing a biotinylated substrate. The plate was left to stand at 30° C. for 1 hour. After the reaction, the plate was washed 3 times with the PBST buffer. Streptavidin-horseradish peroxidase (HRP) was diluted to 50-fold with the blocking buffer. The diluted streptavidin-HRP was added to the wells, and the plate was left to stand at room temperature for 30 minutes. The plate was washed 3 times with the PBST buffer. Immediately before use, 50 μL of the HRP chemiluminescent substrate A and 50 μL of the HRP chemiluminescent substrate B were mixed and 100 μL of the resulting mixture was added to the wells. The chemiluminescence was measured using a chemiluminescence measuring apparatus. The inhibition ratio was obtained according to the following formula 2. [Math. 2] Inhibition ratio (%)=100−{(chemiluminescence intensity when test compound was added)−(chemiluminescence intensity of blank)}/{(chemiluminescence intensity of control)−(chemiluminescence intensity of blank)}×100 Formula 2

[1] = tested on: T-cell factor (TCF)-luciferase reporter using Wnt pathway as index; experiment: Inhibitory activity against TCF-luciferase reporter using Wnt pathway as index (DLD-1/TCF-Luc cells); assay type: cell-based, human; conditions: Homo sapiens; 1 μmol/L; DLD-1/TCF-Luc cells; luciferase activity after 18 hours; read-out: Inhibition ratio (%) at 1 μmol/L
Method in brief: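 Human colorectal DLD-1 cells stably carrying a TCF-responsive luciferase reporter (pGL4.27) were exposed to test compound for 18 h at 37 °C. Luciferase luminescence read; % inhibition calculated relative to control and blank wells, reported at 1 μmol/L.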

Inhibition ratio (%) at 1 μmol/L (tankyrase-2): 82%
SMILES: CC(=O)Nc1ccc2ncnc(N3CCC(CN4Cc5cccnc5N(c5ccnc(C#N)c5)C4=O)CC3)c2c1 [Compound 50, N-[4-(4-{[1-(2-Cyanopyridin-4-yl)-2-oxo-1,2-dihydropyrido[2,3-d]pyrimidin-3(4H)-yl]methyl}piperidin-1-yl)quinazolin-6-yl]acetamide]
inhibition at 1 µM [1]: 87%
